Measurements reported in the supplement of paper PMC10307832.

Assays:
Assay in all cases: relative viability (nuclei count vs DMSO), 5 days (fraction); higher = more cells survive
Alisertib + Navitoclax = compound: COc1cc(Nc2ncc3c(n2)-c2ccc(Cl)cc2C(c2c(F)cccc2OC)=NC3)ccc1C(=O)O [Alisertib] + CC1(C)CCC(c2ccc(Cl)cc2)=C(CN2CCN(c3ccc(C(=O)NS(=O)(=O)c4ccc(N[C@H](CCN5CCOCC5)CSc5ccccc5)c(S(=O)(=O)C(F)(F)F)c4)cc3)CC2)C1 [Navitoclax] (partner 0.5 µM)
How it was run: (§1)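 Lung cancer cell lines were seeded in 1536-well plates and dosed by pin tool the next day, with either a single drug or a fixed anchor-drug dose combined with five library-drug doses (not always all listed) spaced in √10 steps. Five days later, one step fixed the cells and stained their nuclei (final 0.05% Triton X-100, 1% formaldehyde, 1 ug/ml Hoechst), and nuclei were counted on 4× images. Relative viability is the nuclei count in treated wells divided by the count in vehicle wells, and each value is the median of duplicate plates.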

Alisertib + Luminespib = compound: COc1cc(Nc2ncc3c(n2)-c2ccc(Cl)cc2C(c2c(F)cccc2OC)=NC3)ccc1C(=O)O [Alisertib] + CCNC(=O)c1noc(-c2cc(C(C)C)c(O)cc2O)c1-c1ccc(CN2CCOCC2)cc1 [Luminespib] (partner 0.01 µM)
How it was run: as §1

Alisertib + Foretinib = compound: COc1cc(Nc2ncc3c(n2)-c2ccc(Cl)cc2C(c2c(F)cccc2OC)=NC3)ccc1C(=O)O [Alisertib] + COc1cc2c(Oc3ccc(NC(=O)C4(C(=O)Nc5ccc(F)cc5)CC4)cc3F)ccnc2cc1OCCCN1CCOCC1 [Foretinib] (partner 0.25 µM)
How it was run: as §1

Alisertib + Linsitinib = compound: COc1cc(Nc2ncc3c(n2)-c2ccc(Cl)cc2C(c2c(F)cccc2OC)=NC3)ccc1C(=O)O [Alisertib] + C[C@]1(O)C[C@@H](c2nc(-c3ccc4ccc(-c5ccccc5)nc4c3)c3c(N)nccn32)C1 [Linsitinib] (partner 1 µM)
How it was run: as §1

| Cell Line | relative viability (Alisertib + Navitoclax; first compound 0.005 µM) | relative viability (Alisertib + Navitoclax; first compound 0.01581 µM) | relative viability (Alisertib + Navitoclax; first compound 0.05 µM) | relative viability (Alisertib + Navitoclax; first compound 0.1581 µM) | relative viability (Alisertib + Navitoclax; first compound 0.5 µM) | relative viability (Alisertib + Luminespib; first compound 0.005 µM) | relative viability (Alisertib + Luminespib; first compound 0.01581 µM) | relative viability (Alisertib + Luminespib; first compound 0.05 µM) | relative viability (Alisertib + Luminespib; first compound 0.1581 µM) | relative viability (Alisertib + Luminespib; first compound 0.5 µM) | relative viability (Alisertib + Foretinib; first compound 0.005 µM) | relative viability (Alisertib + Foretinib; first compound 0.01581 µM) | relative viability (Alisertib + Foretinib; first compound 0.05 µM) | relative viability (Alisertib + Foretinib; first compound 0.1581 µM) | relative viability (Alisertib + Foretinib; first compound 0.5 µM) | relative viability (Alisertib + Linsitinib; first compound 0.005 µM) | relative viability (Alisertib + Linsitinib; first compound 0.01581 µM) | relative viability (Alisertib + Linsitinib; first compound 0.05 µM) | relative viability (Alisertib + Linsitinib; first compound 0.1581 µM) | relative viability (Alisertib + Linsitinib; first compound 0.5 µM) |
| --- | --- | --- | --- | --- | --- | --- | --- | --- | --- | --- | --- | --- | --- | --- | --- | --- | --- | --- | --- | --- |
| NCI-H2405 | 0.873 | 0.778 | 0.574 | 0.198 | 0.135 | 0.735 | 0.619 | 0.745 | 0.356 | 0.285 | 1.02 | 0.992 | 0.838 | 0.371 | 0.286 | 0.922 | 0.814 | 0.818 | 0.384 | 0.266 |
| NCI-H3122 | 1.04 | 0.992 | 0.664 | 0.592 | 0.237 | 0.105 | 0.101 | 0.0716 | 0.0737 | 0.0805 | 0.9 | 0.981 | 0.551 | 0.384 | 0.191 | 1.02 | 0.905 | 0.571 | 0.467 | 0.245 |
| PC-3 [JPC-3] | 0.757 | 0.79 | 0.401 | 0.306 | 0.281 | 0.705 | 0.661 | 0.455 | 0.376 | 0.359 | 0.97 | 0.868 | 0.706 | 0.531 | 0.398 | 0.967 | 0.908 | 0.864 | 0.559 | 0.447 |
| PC-14 | 0.924 | 0.881 | 0.663 | 0.362 | 0.0849 | 0.177 | 0.141 | 0.146 | 0.134 | 0.151 | 0.849 | 0.77 | 0.837 | 0.473 | 0.135 | 0.91 | 0.848 | 0.774 | 0.222 | 0.117 |
| RERF-LC-KJ | 1.06 | 0.838 | 0.415 | 0.178 | 0.284 | 1.24 | 0.81 | 0.342 | 0.248 | 0.312 | 0.861 | 0.772 | 0.484 | 0.356 | 0.21 | 0.92 | 0.789 | 0.581 | 0.207 | 0.227 |
| SK-LU-1 | 0.841 | 0.736 | 0.101 | 0.139 | 0.112 | 0.178 | 0.18 | 0.159 | 0.184 | 0.178 | 0.818 | 0.66 | 0.324 | 0.227 | 0.182 | 1.07 | 0.924 | 0.361 | 0.324 | 0.24 |
| SK-MES-1 | 1.09 | 0.892 | 0.315 | 0.139 | 0.0931 | 0.723 | 0.4 | 0.273 | 0.144 | 0.17 | 0.779 | 0.928 | 0.74 | 0.233 | 0.189 | 0.953 | 0.963 | 0.725 | 0.279 | 0.16 |
| SW 1573 | 0.954 | 0.737 | 0.219 | 0.0904 | 0.0636 | 0.28 | 0.139 | 0.106 | 0.0766 | 0.102 | 0.911 | 0.772 | 0.667 | 0.245 | 0.172 | 0.856 | 0.824 | 0.649 | 0.176 | 0.143 |
| UMC-11 | 0.241 | 0.163 | 0.121 | 0.115 | 0.125 | 0.85 | 0.428 | 0.173 | 0.141 | 0.132 | 0.648 | 0.263 | 0.189 | 0.195 | 0.168 | 0.755 | 0.495 | 0.168 | 0.148 | 0.158 |
